What all share (assay type): cell-based, C. elegans
The target of one test is M1-R (Caenorhabditis elegans, UniProt G5ECD3+G5EE10, N305R, form not given). The conditions noted are these: at EC50 GABA. As to the method: (§1) Electrophysiology: Plasmids containing wild-type and mutagenized GABAA receptor subunits were linearized and transcribed in vitro using T3 RNA polymerase (mMessage mMachine T3 kit, Ambion, Austin Tex.). UNC-49B mRNA was injected into Xenopus laevis oocytes at 0.5 μg/μl either alone, or in a mixture with 0.5 μg/μl UNC-49C. […] The injection volume ranged between 27.6 nl to 50.6 nl. […] Cells were voltage clamped at −60 mV. All recordings were performed at room temperature.
Sequence of M1-R (G5ECD3 entry or part of it, stated change not applied): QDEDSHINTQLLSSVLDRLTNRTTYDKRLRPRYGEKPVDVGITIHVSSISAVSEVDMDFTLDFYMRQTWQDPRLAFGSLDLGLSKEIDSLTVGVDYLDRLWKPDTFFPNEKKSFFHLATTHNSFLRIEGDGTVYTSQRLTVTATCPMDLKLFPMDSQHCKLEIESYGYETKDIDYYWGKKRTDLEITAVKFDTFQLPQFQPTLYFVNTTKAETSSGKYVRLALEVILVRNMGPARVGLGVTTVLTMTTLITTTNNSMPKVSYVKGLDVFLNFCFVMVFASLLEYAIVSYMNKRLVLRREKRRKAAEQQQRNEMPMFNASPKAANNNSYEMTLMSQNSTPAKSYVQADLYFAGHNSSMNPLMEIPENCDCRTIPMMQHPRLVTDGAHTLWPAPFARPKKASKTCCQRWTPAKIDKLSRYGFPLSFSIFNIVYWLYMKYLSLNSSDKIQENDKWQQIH
Sequence of M1-R (G5EE10 256-283, stated change not applied): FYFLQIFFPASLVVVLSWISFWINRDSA

A further test concerns the target TM chimera (Caenorhabditis elegans, UniProt G5ECD3+G5EE10). Conditions: TM chimera homomer; 5 μM PS. As to the method: as §1
The subject of a further test is UNC-49B-PS7. As to the method:
as §1

In a further test the target is X chimera (Caenorhabditis elegans, UniProt G5ECD3, I262F/M258L/N259Q/N305R/S264A/T257F/V261F). Conditions: at EC50 GABA. The procedure:
as §1

The next test addresses X(I265S) (Caenorhabditis elegans, UniProt G5ECD3, I262F/I265S/M258L/N259Q/N305R/S264A/T257F/V261F). The conditions noted are these: at EC50 GABA. The procedure:
as §1

Test [1] has as its target X(I265S, Q259N) (Caenorhabditis elegans, UniProt G5ECD3, I262F/I265S/M258L/N305R/S264A/T257F/V261F). Conditions: X(I265S, Q259N); at EC50 GABA. As to the method:
as §1

For test [2], the system named is X(I265S, Q259N). The conditions noted are these: residue 259 reverted to asparagine, versus X(I265S). As to the method:
as §1

Another test addresses X(I267V) (Caenorhabditis elegans, UniProt G5ECD3, I262F/I267V/M258L/N259Q/N305R/S264A/T257F/V261F). Conditions: at EC50 GABA. The procedure:
as §1

For another test, the target named is X(V273I) (Caenorhabditis elegans, UniProt G5ECD3, I262F/M258L/N259Q/N305R/S264A/T257F/V261F/V273I). The conditions noted are these: at EC50 GABA. As to the method: as §1
For a further test, the system named is XY chimera. The conditions noted are these: XY chimera versus X chimera. As to the method: as §1
The next test addresses XZ chimera (Caenorhabditis elegans, UniProt G5ECD3, A281S/E280D/I262F/L277I/M258L/N259Q/N305R/S264A/S282A/T257F/V261F). Conditions: at EC50 GABA. As to the method:
as §1

In the next test the target is Y chimera (Caenorhabditis elegans, UniProt G5ECD3, I265S/I267V/I270L/N259Q/N305R/T269V/V261F/V273I). The conditions noted are these: Y chimera; at EC50 GABA. As to the method: as §1
In a further test the target is YZ chimera (Caenorhabditis elegans, UniProt G5ECD3, A281S/E280D/I265S/I267V/I270L/L277I/N259Q/N305R/S282A/T269V/V261F/V273I). Conditions: at EC50 GABA. The procedure: as §1
The target of the next test is Z chimera (Caenorhabditis elegans, UniProt G5ECD3, A281S/E280D/L277I/N259Q/N305R/S282A/V261F). Conditions: at EC50 GABA. As to the method: as §1
In test [3] the target is double chimera (M1 + linker) (Caenorhabditis elegans, UniProt G5ECD3+G5EE10). The conditions noted are these: at EC50 GABA. The procedure:
as §1

In the next test the target is linker chimera (Caenorhabditis elegans, UniProt G5ECD3, N305R, form not given). Conditions: at EC50 GABA. As to the method: as §1
The target in a further test is T1, Y(M258L) (Caenorhabditis elegans, UniProt G5ECD3, I265S/I267V/I270L/M258L/N259Q/N305R/T269V/V261F/V273I).
T1 sequence (G5ECD3 23-506 M258L/N259Q/V261F/I265S/I267V/T269V/I270L/V273I/N305R): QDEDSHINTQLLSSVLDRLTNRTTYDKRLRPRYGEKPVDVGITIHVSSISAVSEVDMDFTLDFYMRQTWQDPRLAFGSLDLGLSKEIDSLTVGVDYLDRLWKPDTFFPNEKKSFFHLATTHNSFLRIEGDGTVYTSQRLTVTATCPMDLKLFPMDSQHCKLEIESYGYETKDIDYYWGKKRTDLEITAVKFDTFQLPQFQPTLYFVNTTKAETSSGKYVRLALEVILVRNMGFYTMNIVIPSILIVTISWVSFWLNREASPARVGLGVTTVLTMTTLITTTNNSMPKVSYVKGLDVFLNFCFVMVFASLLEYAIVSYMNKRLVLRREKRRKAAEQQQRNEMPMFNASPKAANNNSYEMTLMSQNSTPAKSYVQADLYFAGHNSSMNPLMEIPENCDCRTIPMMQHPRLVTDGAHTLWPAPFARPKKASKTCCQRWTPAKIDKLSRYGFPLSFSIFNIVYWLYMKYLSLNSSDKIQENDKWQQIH
Conditions: M258L mutant; median of 1000 bootstrap trials. As to the method:
as §1
(§2) Error bars in the figures are standard error of the mean. All drugs were obtained from Sigma (St. Louis). […] Picrotoxin was prepared as a 100 mM stock in DMSO.
(§3) Important residues in the X segment were tested by substituting UNC-49C residues into the Y chimera. […] These divergent X segment residues were tested by mutating them from UNC-49B to UNC-49C amino acids in the Y chimera background.

A further test addresses T2, Y(M258L/S264A) (Caenorhabditis elegans, UniProt G5ECD3, I265S/I267V/I270L/M258L/N259Q/N305R/S264A/T269V/V261F/V273I).
T2 sequence (G5ECD3 23-506 M258L/N259Q/V261F/S264A/I265S/I267V/T269V/I270L/V273I/N305R): T1 sequence (G5ECD3 23-506 M258L/N259Q/V261F/I265S/I267V/T269V/I270L/V273I/N305R)
The conditions noted are these: M258L/S264A mutant; median of 1000 bootstrap trials. The procedure:
as §1, §2, §3

Sequence of double chimera (M1 + linker) (G5EE10 entry or part of it, change not shown, one chain of several): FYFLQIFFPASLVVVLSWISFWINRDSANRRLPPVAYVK
Sequence of TM chimera (G5EE10 256-448, change not shown, one chain of several): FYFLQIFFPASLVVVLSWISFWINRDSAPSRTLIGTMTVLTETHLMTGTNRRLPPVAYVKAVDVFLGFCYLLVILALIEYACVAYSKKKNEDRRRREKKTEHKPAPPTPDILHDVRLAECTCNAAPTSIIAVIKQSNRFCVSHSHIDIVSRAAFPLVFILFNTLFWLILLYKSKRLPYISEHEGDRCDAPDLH

As for pregnenolone sulfate [PS], the “PS Slope coefficient” value at M1-R is on record as 1.2 ± 0.1 (n = 8); on X chimera, 1.0 ± 0.03; on X(I265S) it was 1.1 ± 0.1; at X(I265S, Q259N) [1] it was 0.9 ± 0.0; on X(I267V), 1.1 ± 0.05; at X(V273I) it was 1.0 ± 0.02. In addition, the “PS Slope coefficient” value at XZ chimera is on record as 1.1 ± .06; at Y chimera it was 10.4 ± 1.3; at YZ chimera, 3.5 ± 1.6; at Z chimera it was 1.05 ± 0.03; in [3], 1.4 ± 0.1 (n = 4); at linker chimera, 1.3 ± 0.2 (n = 5). For the same substance, at TM chimera, the PS inhibition result is recorded as “strongly inhibited”. Moreover, the “fold increase in PS sensitivity” value amounted to 58 fold in the test with UNC-49B-PS7 (UNC-49B-PS7 versus UNC-49B subunit) and 3.7 fold with XY chimera. The “fold difference in PS sensitivity” value in the test on UNC-49B-PS7 (UNC-49B-PS7 versus UNC-49B/C heteromer) was 1.4 fold. For the same substance, in the test on X(I265S, Q259N) [2], the “fold reduction in PS sensitivity” value was determined as 2.2 fold. Moreover, the “A, amplitude of normalized current above 1 (biphasic fit)” value amounted to 1.56 at Y(M258L) and 1.0 at Y(M258L/S264A). Also, the “nE, slope coefficient for the enhancement” value at Y(M258L) was 1.0; at Y(M258L/S264A) it was 1.3. Also, the “nI, slope coefficient for the inhibition” value is recorded as 1.8 on Y(M258L) and 1 .9 at Y(M258L/S264A).

The values above are taken from patent US8183001B2 (priority 2006, dated 2012).
